{
  "source": "patent US20240041042A1",
  "about": "“1-(PYRIDYL)-5-AZINYLPYRAZOLE DERIVATIVES, AND THEIR USE FOR CONTROL OF UNDESIRED PLANT GROWTH” (Bayer Aktiengesellschaft, priority 2020, published 2024)",
  "format_in_all_cases": "in vivo",
  "key": {"[1]": {"system": "Digitaria sanguinalis (DIGSA)", "test": "Pre-emergence herbicidal action against DIGSA", "summary_of_the_method": "(§1)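 Herbicide applied to soil before seedling emergence, at 600 l/ha spray volume with 0.5% additive and rates up to 320 g/ha. Evaluation: visual percentage effect, about 3 weeks later, greenhouse-grown pots compared with untreated ones.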"}, "[2]": {"system": "Alopecurus myosuroides (ALOMY)", "test": "Post-emergence herbicidal action against ALOMY", "details": "visual rating about 3 weeks after treatment vs untreated controls (100% = plants have died, 0% = like control plants)", "summary_of_the_method": "(§2)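 Doses of 320 g/ha or lower, suffixes a, b and c marking different dosages, were applied post-emergence at the one-leaf stage in 600 l/ha water with 0.5% additive. Damage was assessed visually after about 3 weeks in the greenhouse.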"}, "[3]": {"system": "Setaria viridis (SETVI)", "test": "Post-emergence herbicidal action against SETVI", "summary_of_the_method": "as §2"}, "[4]": {"system": "Oryza sativa (ORYSA)", "details": "crop plant compatibility, 80 g/ha, effect in comparison to untreated controls", "summary_of_the_method": "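Greenhouse crops in sandy loam sprayed post-emergence at the one-leaf stage, 2–3 weeks after sowing, with WP or EC formulations in water plus 0.5% additive at 600 l/ha. Damage rated visually about 3 weeks later versus untreated controls (0% = like control, 100% = dead); suffixes a–c denote different doses.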"}, "[5]": {"system": "Echinochloa crus-galli (ECHCG)", "test": "Pre-emergence herbicidal action against ECHCG", "summary_of_the_method": "as §1"}, "[6]": {"system": "Alopecurus myosuroides (ALOMY)", "test": "Pre-emergence herbicidal action against ALOMY", "details": "320 g/ha; scored visually after about 3 weeks; 100% = plants have died", "summary_of_the_method": "as §1"}, "[7]": {"system": "Polygonum convolvulus (POLCO)", "test": "Pre-emergence herbicidal action against POLCO", "summary_of_the_method": "as §1"}, "[8]": {"system": "Echinochloa crus-galli (ECHCG)", "test": "Post-emergence herbicidal action against ECHCG", "summary_of_the_method": "as §2"}, "[9]": {"system": "Viola tricolor (VIOTR)", "test": "Post-emergence herbicidal action against VIOTR", "summary_of_the_method": "as §2"}, "[10]": {"system": "Avena fatua (AVEFA)", "test": "Post-emergence herbicidal action against AVEFA", "details": "320 g/ha, visual rating about 3 weeks after treatment", "summary_of_the_method": "as §2"}, "[11]": {"system": "Pharbitis purpurea (PHBPU)", "test": "Post-emergence herbicidal action against PHBPU", "summary_of_the_method": "as §2"}, "[12]": {"system": "Lolium rigidum (LOLRI)", "test": "Post-emergence herbicidal action against LOLRI", "summary_of_the_method": "as §2"}, "[13]": {"system": "Amaranthus retroflexus (AMARE)", "test": "Post-emergence herbicidal action against AMARE", "summary_of_the_method": "as §2"}, "[14]": {"system": "Abutilon theophrasti (ABUTH)", "test": "Pre-emergence herbicidal action against ABUTH", "details": "Dosage column 320 g/ha (title prints 3200 g/ha); scored visually after about 3 weeks; 100% = plants have died", "summary_of_the_method": "as §1"}, "[15]": {"system": "Digitaria sanguinalis (DIGSA)", "test": "Post-emergence herbicidal action against DIGSA", "details": "320 g/ha, visual rating about 3 weeks after treatment", "summary_of_the_method": "as §2"}, "[16]": {"system": "Lolium rigidum (LOLRI)", "test": "Pre-emergence herbicidal action against LOLRI", "summary_of_the_method": "as §1"}, "[17]": {"system": "Amaranthus retroflexus (AMARE)", "test": "Pre-emergence herbicidal action against AMARE", "details": "visual scoring after about 3 weeks vs untreated controls", "summary_of_the_method": "as §1"}, "[18]": {"system": "Setaria viridis (SETVI)", "test": "Pre-emergence herbicidal action against SETVI", "summary_of_the_method": "as §1"}, "[19]": {"system": "Viola tricolor (VIOTR)", "test": "Pre-emergence herbicidal action against VIOTR", "summary_of_the_method": "as §1"}, "[20]": {"system": "Matricaria inodora (MATIN)", "test": "Pre-emergence herbicidal action against MATIN", "summary_of_the_method": "as §1"}, "[21]": {"system": "Verconica persica (VERPE)", "test": "Pre-emergence herbicidal action against VERPE", "details": "dosage 320 g/ha", "summary_of_the_method": "as §1"}, "[22]": {"system": "Pharbitis purpurea (PHBPU)", "test": "Pre-emergence herbicidal action against PHBPU", "summary_of_the_method": "as §1"}},
  "data": [
    {"smiles": "COC(=O)C(C)COC(=O)COc1nn(-c2ccccn2)c(-c2cncc(F)c2)c1Cl", "note": "(centres unmarked) [Example I-221]", "values": [
      {"measurement": "Pre-emergence action against DIGSA in %", "setting": "[1]; 80 g/ha, visual scoring after about 3 weeks vs untreated controls", "result": 90, "unit": "%"},
      {"measurement": "Pre-emergence action against DIGSA in %", "setting": "[1]; dosage 320 g/ha", "result": 100, "unit": "%"},
      {"measurement": "Post-emergence action against ALOMY in %", "setting": "[2]; 80 g/ha", "result": 80, "unit": "%"},
      {"measurement": "Post-emergence action against ALOMY in %", "setting": "[2]; 320 g/ha", "result": 80, "unit": "%"},
      {"measurement": "Post-emergence action against SETVI in %", "setting": "[3]; dosage 80 g/ha", "result": 90, "unit": "%"},
      {"measurement": "Post-emergence action against SETVI in %", "setting": "[3]; dosage 320 g/ha", "result": 90, "unit": "%"},
      {"measurement": "Post-emergence action against ORYSA in %", "setting": "[4]", "result": 20, "unit": "%"},
      {"measurement": "Pre-emergence action against ECHCG in %", "setting": "[5]; dosage 80 g/ha", "result": 90, "unit": "%"},
      {"measurement": "Pre-emergence action against ECHCG in %", "setting": "[5]; dosage 320 g/ha", "result": 100, "unit": "%"},
      {"measurement": "Pre-emergence action against ALOMY", "setting": "[6]", "result": 90, "unit": "%"},
      {"measurement": "Pre-emergence action against POLCO in %", "setting": "[7]; dosage 80 g/ha", "result": 80, "unit": "%"},
      {"measurement": "Pre-emergence action against POLCO in %", "setting": "[7]; dosage 320 g/ha", "result": 90, "unit": "%"},
      {"measurement": "Post-emergence action against ECHCG in %", "setting": "[8]; dosage 80 g/ha", "result": 80, "unit": "%"},
      {"measurement": "Post-emergence action against ECHCG in %", "setting": "[8]; dosage 320 g/ha", "result": 80, "unit": "%"},
      {"measurement": "Post-emergence action against VIOTR in %", "setting": "[9]; 80 g/ha", "result": 80, "unit": "%"},
      {"measurement": "Post-emergence action against VIOTR in %", "setting": "[9]; 320 g/ha", "result": 80, "unit": "%"},
      {"measurement": "Post-emergence action against AVEFA in %", "setting": "[10]", "result": 80, "unit": "%"},
      {"measurement": "Post-emergence action against PHBPU in %", "setting": "[11]; dosage 80 g/ha", "result": 90, "unit": "%"},
      {"measurement": "Post-emergence action against PHBPU in %", "setting": "[11]; dosage 320 g/ha", "result": 100, "unit": "%"},
      {"measurement": "Post-emergence action against LOLRI in %", "setting": "[12]; dosage 80 g/ha", "result": 80, "unit": "%"},
      {"measurement": "Post-emergence action against LOLRI in %", "setting": "[12]; dosage 320 g/ha", "result": 90, "unit": "%"},
      {"measurement": "Post-emergence action against AMARE in %", "setting": "[13]; 80 g/ha, visual rating about 3 weeks after treatment vs untreated controls (100% = plants have died, 0% = like control plants)", "result": 80, "unit": "%"},
      {"measurement": "Post-emergence action against AMARE in %", "setting": "[13]; 320 g/ha, visual rating about 3 weeks after treatment", "result": 90, "unit": "%"},
      {"measurement": "Pre-emergence action against ABUTH", "setting": "[14]", "result": 80, "unit": "%"},
      {"measurement": "Post-emergence action against DIGSA in %", "setting": "[15]", "result": 80, "unit": "%"},
      {"measurement": "Pre-emergence action against LOLRI in %", "setting": "[16]; dosage 80 g/ha", "result": 80, "unit": "%"},
      {"measurement": "Pre-emergence action against LOLRI in %", "setting": "[16]; dosage 320 g/ha", "result": 100, "unit": "%"},
      {"measurement": "Pre-emergence action against AMARE in %", "setting": "[17]; 80 g/ha", "result": 80, "unit": "%"},
      {"measurement": "Pre-emergence action against AMARE in %", "setting": "[17]; 320 g/ha", "result": 90, "unit": "%"},
      {"measurement": "Pre-emergence action against SETVI in %", "setting": "[18]; dosage 80 g/ha", "result": 90, "unit": "%"},
      {"measurement": "Pre-emergence action against SETVI in %", "setting": "[18]; dosage 320 g/ha", "result": 100, "unit": "%"},
      {"measurement": "Pre-emergence action against VIOTR in %", "setting": "[19]; 320 g/ha, Viola tricolor", "result": 90, "unit": "%"},
      {"measurement": "Pre-emergence action against VIOTR in %", "setting": "[19]; dosage 80 g/ha", "result": 90, "unit": "%"},
      {"measurement": "Pre-emergence action against MATIN in %", "setting": "[20]; dosage 80 g/ha", "result": 90, "unit": "%"},
      {"measurement": "Pre-emergence action against MATIN in %", "setting": "[20]; dosage 320 g/ha", "result": 90, "unit": "%"},
      {"measurement": "Pre-emergence action against VERPE in %", "setting": "[21]", "result": 90, "unit": "%"},
      {"measurement": "Pre-emergence action against PHBPU in %", "setting": "[22]; dosage 80 g/ha", "result": 90, "unit": "%"},
      {"measurement": "Pre-emergence action against PHBPU in %", "setting": "[22]; dosage 320 g/ha", "result": 90, "unit": "%"}
    ]}
  ]
}
